Broadly, the pEC50 is the negative decadic logarithm of the EC50, by convention in mol/L.

One test deals with 5-HT2B receptor (Homo sapiens (Human), UniProt P41595). The test can be described thus: IP accumulation assay, 5-HT2B. Type of test: cell-based. On the procedure: (§1) HEK293 cells expressing recombinant 5-HT2 receptors were added to sterile poly-D-lysine-coated 96-well microtiter plates (35,000 cells/well) and labeled with 0.6 μCi/well of [^3H]inositol in myoinositol-free DMEM for 18 h. Unincorporated [^3H]inositol was removed by aspiration and replaced with fresh myoinositol-free DMEM supplemented with LiCl (10 mM final) and pargyline (10 μM final). Serially diluted test compounds were then added and incubation was conducted for 2 h at 37° C. (5-HT2B, and 5-HT2A) and RT (5-HT2C). Incubations were then terminated by lysing cells with the addition of ice-cold 0.1 M formic acid followed by freezing at −80° C. After thawing, total [^3H]inositol phosphates were resolved from [^3H]inositol using AG1-X8 ion exchange resin (Bio-Rad) and [^3H]inositol phosphates were measured by scintillation counting using a Perkin Elmer TopCount® scintillation counter. All EC50 determinations were performed using 10 different concentrations and triplicate determinations were made at each test concentration.

The target in a further test is 5-HT2C receptor (Homo sapiens (Human), UniProt P28335). The test can be described thus: IP accumulation assay, 5-HT2C. Type of test: cell-based. The method, then: as §1
The target of test [1] is T1, 5-HT2A receptor (Homo sapiens (Human), UniProt P28223). Put plainly: IP accumulation assay, 5-HT2A. Type of test: cell-based. The method, then: as §1
Test [2] has as its target T1, 5-HT2A receptor. The test can be described thus: DOI radioligand binding assay, 5-HT2A. The settings on record: [125I]DOI competition, HEK293 cell membranes; read-out: DOI Binding 5HT2A. The method, then:
For the compounds of Table A, the following procedure was used. HEK293 cells stably expressing recombinant 5-HT2 receptors were harvested, suspended in ice-cold phosphate buffered saline, pH 7.4 (PBS), and then centrifuged at 48,000 g for 20 min at 4° C. The resulting cell pellet was then re-suspended in wash buffer containing 20 mM HEPES, pH 7.4 and 0.1 mM EDTA, homogenized on ice using a Brinkman Polytron, and centrifuged (48,000 g for 20 min at 4° C.). The pellet was then resuspended in 20 mM HEPES, pH 7.4, homogenized on ice, and centrifuged (48,000 g for 20 min at 4° C.). Crude membrane pellets were stored at −80° C. until used for radioligand binding assays.
For the compounds of Table A, the following procedure was used. […] Experiments comprised addition of 95 μL of assay buffer (20 mM HEPES, pH 7.4, 10 mM MgCl2), 50 μL of membranes, 50 μL of radioligand stock, and 5 μL of test compound diluted in assay buffer to 96-well microtiter plates, which were then incubated for 1 h at room temperature. Assay incubations were terminated by rapid filtration through PerkinElmer F/C filtration plates under reduced pressure using a 96-well Packard filtration apparatus, followed by washing three times with ice cold assay buffer. Plates were then dried at 45° C. for a minimum of 2 h. Finally, 25 μL of BetaScint™ scintillation cocktail was added to each well and the plates were counted in a Packard TopCount® scintillation counter. In each competition study, test compounds were dosed at ten concentrations with triplicate determinations at each test concentration.

Setting [3] is: IP accumulation, HEK293 cells, 2 h at 37° C., read-out: EC50 5HT2B.
Setting [4] is: IP accumulation, HEK293 cells, 2 h at RT, read-out: EC50 5HT2C.
The mark [5] stands for this setting: IP accumulation, HEK293 cells, 2 h at 37° C., read-out: EC50 5HT2A.

pEC50, pKi: −log10 of the molar value. Where two headings read alike, the source gives them in different places. Where only a bound is given, the exact number is not on record here.

T1 sequence (P28223 whole entry): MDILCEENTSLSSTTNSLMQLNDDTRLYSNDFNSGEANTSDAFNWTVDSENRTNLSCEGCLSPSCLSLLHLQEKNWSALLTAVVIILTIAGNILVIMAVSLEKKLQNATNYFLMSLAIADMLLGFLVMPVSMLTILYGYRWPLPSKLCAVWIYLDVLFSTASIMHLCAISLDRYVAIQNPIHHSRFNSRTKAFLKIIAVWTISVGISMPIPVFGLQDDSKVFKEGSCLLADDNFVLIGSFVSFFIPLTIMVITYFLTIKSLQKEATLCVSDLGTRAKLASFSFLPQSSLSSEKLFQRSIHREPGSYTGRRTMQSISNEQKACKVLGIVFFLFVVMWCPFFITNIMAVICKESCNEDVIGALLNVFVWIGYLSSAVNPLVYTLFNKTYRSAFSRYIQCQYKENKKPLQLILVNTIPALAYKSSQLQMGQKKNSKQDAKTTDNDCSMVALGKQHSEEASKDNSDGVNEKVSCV
5-HT2B receptor, sequence (P41595 whole entry): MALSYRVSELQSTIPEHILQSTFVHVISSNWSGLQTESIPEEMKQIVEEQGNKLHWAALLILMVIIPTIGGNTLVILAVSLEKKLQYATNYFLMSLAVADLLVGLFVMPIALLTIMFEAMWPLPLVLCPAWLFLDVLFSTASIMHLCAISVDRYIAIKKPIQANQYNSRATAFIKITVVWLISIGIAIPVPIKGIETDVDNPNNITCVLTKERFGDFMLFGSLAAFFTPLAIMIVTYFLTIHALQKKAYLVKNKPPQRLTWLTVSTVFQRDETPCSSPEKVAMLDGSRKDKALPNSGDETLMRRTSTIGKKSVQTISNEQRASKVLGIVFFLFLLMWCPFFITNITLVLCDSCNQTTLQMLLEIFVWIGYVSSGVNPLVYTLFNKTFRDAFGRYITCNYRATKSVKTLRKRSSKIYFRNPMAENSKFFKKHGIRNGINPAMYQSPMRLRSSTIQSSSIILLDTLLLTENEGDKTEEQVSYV
5-HT2C receptor, sequence (P28335 33-458): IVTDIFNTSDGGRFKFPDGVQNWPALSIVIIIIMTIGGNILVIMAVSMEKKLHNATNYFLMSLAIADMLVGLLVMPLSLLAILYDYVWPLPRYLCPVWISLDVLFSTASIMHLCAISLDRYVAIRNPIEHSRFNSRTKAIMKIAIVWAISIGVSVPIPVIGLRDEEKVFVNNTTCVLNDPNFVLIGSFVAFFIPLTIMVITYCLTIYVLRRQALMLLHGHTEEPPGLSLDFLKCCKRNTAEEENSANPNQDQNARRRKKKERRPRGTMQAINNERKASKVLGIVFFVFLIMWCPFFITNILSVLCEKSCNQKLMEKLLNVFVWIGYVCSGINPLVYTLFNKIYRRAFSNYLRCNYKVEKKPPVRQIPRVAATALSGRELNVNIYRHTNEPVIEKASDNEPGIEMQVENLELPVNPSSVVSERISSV

Consider `FC(F)(F)Oc1cccc(-c2ccnc3c2CC[C@@H]2CNCCN32)c1` [Compound 105, (R)-4-(3-(trifluoromethoxy)phenyl)-6,6a,7,8,9,10-hexahydro-5H-pyrazino[1,2-a][1,8]naphthyridine], for which the pEC50 was at most 4.00 on 5-HT2B receptor (setting [3]), 5.51 at 5-HT2C receptor (setting [4]) and at most 4.00 on 5-HT2A receptor [1] (setting [5]).

For `CSc1nc(Cl)c2c(n1)N1CCNC[C@H]1CC2` [Compound 169, (R)-4-chloro-2-(methylthio)-6,6a,7,8,9,10-hexahydro-5H-pyrazino[1′,2′:1,6]pyrido[2,3-d]pyrimidine], the pKi at 5-HT2A receptor [2] is 6.89.

Take `c1cc2c(cn1)CC[C@@H]1CNCCN21` [Compound 155, (R)-2,3,4,4a,5,6-hexahydro-1H-pyrazino[1,2-a][1,6]naphthyridine]: the pEC50 at 5-HT2B receptor is at most 4.00; at 5-HT2C receptor, 4.00; at 5-HT2A receptor [1], at most 4.00.

Take `CC1CC2CNCCN2c2ncccc21` (stereo not drawn) [Compound 158, 5-methyl-6,6a,7,8,9,10-hexahydro-5H-pyrazino[1,2-a][1,8]naphthyridine]: the pKi at 5-HT2A receptor [2] was 5.97.

As for `O=C(Nc1ccnc2c1CC[C@@H]1CNCCN21)C1CC1` [Compound 141, (R)-N-(6,6a,7,8,9,10-hexahydro-5H-pyrazino[1,2-a][1,8]naphthyridin-4-yl)cyclopropanecarboxamide], the pEC50 was at most 4.00 on 5-HT2B receptor (setting [3]), 4.00 on 5-HT2C receptor (setting [4]) and at most 4.00 at 5-HT2A receptor [1].

Consider `CCc1c(CC2CCCC2)cnc2c1CC[C@@H]1CNCCN21` [Compound 171, (R)-3-(cyclopentylmethyl)-4-ethyl-6,6a,7,8,9,10-hexahydro-5H-pyrazino[1,2-a][1,8]naphthyridine], for which the pKi on 5-HT2A receptor [2] is 6.45.

As for `O=C(Nc1ccnc2c1CC[C@@H]1CNCCN21)N1CCCC1` [Compound 131, (R)-N-(6,6a,7,8,9,10-hexahydro-5H-pyrazino[1,2-a][1,8]naphthyridin-4-yl)pyrrolidine-1-carboxamide], the pEC50 at 5-HT2B receptor (setting [3]) was at most 4.00; on 5-HT2C receptor (setting [4]) it was 4.00; at 5-HT2A receptor [1], at most 4.00.

In the case of `CCOC(=O)Nc1ccnc2c1CC[C@@H]1CNCCN21` [Compound 123, (R)-ethyl(6,6a,7,8,9,10-hexahydro-5H-pyrazino[1,2-a][1,8]naphthyridin-4-yl)carbamate], the pEC50 on 5-HT2B receptor (setting [3]) was at most 4.00; at 5-HT2C receptor (setting [4]), 6.05; on 5-HT2A receptor [1] it was at most 4.00.

As to `Clc1ccnc2c1CC[C@@H]1CNCCN21` [Compound 150, (R)-4-chloro-6,6a,7,8,9,10-hexahydro-5H-pyrazino[1,2-a][1,8]naphthyridine], the pEC50 at 5-HT2B receptor was 7.34; at 5-HT2C receptor, 8.28; on 5-HT2A receptor [1], 5.88.

With `CNC(=O)c1ccnc2c1CC[C@@H]1CNCCN21` [Compound 102, (R)-N-methyl-6,6a,7,8,9,10-hexahydro-5H-pyrazino[1,2-a][1,8]naphthyridine-4-carboxamide], the pEC50 at 5-HT2B receptor (setting [3]) is at most 4.00; at 5-HT2C receptor (setting [4]), 4.00; at 5-HT2A receptor [1], at most 4.00.

Turning to `FC(F)(F)c1ccccc1-c1ccnc2c1CC[C@@H]1CNCCN21` [Compound 134, (R)-(2-(trifluoromethyl)phenyl)-6,6a,7,8,9,10-hexahydro-5H-pyrazino[1,2-a][1,8]naphthyridine], the pEC50 was 5.76 at 5-HT2B receptor (setting [3]), 5.25 on 5-HT2C receptor (setting [4]) and at most 4.00 on 5-HT2A receptor [1].

As for `c1cc2c(cn1)N1CCNC[C@H]1CC2` [Compound 153, (R)-6,6a,7,8,9,10-hexahydro-5H-pyrazino[1,2-a][1,7]naphthyridine], the figures for the pEC50 at 5-HT2B receptor (setting [3]), at 5-HT2C receptor (setting [4]) and on 5-HT2A receptor [1] (setting [5]) were 6.11, 6.48 and 4.00, respectively.

As to `CCCC(=O)Nc1ccnc2c1CC[C@@H]1CNCCN21` [Compound 125, (R)-N-(6,6a,7,8,9,10-hexahydro-5H-pyrazino[1,2-a][1,8]naphthyridin-4-yl)butyramide], the figures for the pEC50 on 5-HT2B receptor (setting [3]), at 5-HT2C receptor (setting [4]) and at 5-HT2A receptor [1] were at most 4.00, 4.00 and at most 4.00, respectively.

Regarding `O=C(Cc1ccccc1)Nc1ccnc2c1CC[C@@H]1CNCCN21` [Compound 124, (R)-N-(6,6a,7,8,9,10-hexahydro-5H-pyrazino[1,2-a][1,8]naphthyridin-4-yl)-2-phenylacetamide], the pEC50 on 5-HT2B receptor (setting [3]) was at most 4.00; on 5-HT2C receptor (setting [4]), 5.44; on 5-HT2A receptor [1] it was at most 4.00.

On to `COc1ccc(-c2ccnc3c2CC[C@@H]2CNCCN32)cc1` [Compound 135, (R)-4-(4-methoxyphenyl)-6,6a,7,8,9,10-hexahydro-5H-pyrazino[1,2-a][1,8]naphthyridine], for which the negative-log EC50 (pEC50) is at most 4.00 on 5-HT2B receptor (setting [3]), 5.27 on 5-HT2C receptor (setting [4]) and at most 4.00 on 5-HT2A receptor [1].

Regarding `CCCc1cncc2c1CC[C@@H]1CNCCN21` [Compound 173, (R)-4-propyl-6,6a,7,8,9,10-hexahydro-5H-pyrazino[1,2-a][1,7]naphthyridine], the pKi on 5-HT2A receptor [2] was 7.36.

Take `CCc1c(COC(C)C)cnc2c1CC[C@@H]1CNCCN21` [Compound 163, (R)-4-ethyl-3-(isopropoxymethyl)-6,6a,7,8,9,10-hexahydro-5H-pyrazino[1,2-a][1,8]naphthyridine]: at 5-HT2A receptor [2], the pKi is 6.33.

As to `c1cc2c(c(CC3CCC3)n1)CC[C@@H]1CNCCN21` [Compound 154, (R)-7-(cyclobutylmethyl)-2,3,4,4a,5,6-hexahydro-1H-pyrazino[1,2-a][1,6]naphthyridine], the values for the pEC50 on 5-HT2B receptor, on 5-HT2C receptor and on 5-HT2A receptor [1] were at most 4.00, 5.25 and at most 4.00, respectively.

In the case of `O=C(Nc1ccnc2c1CC[C@@H]1CNCCN21)c1cccc(F)c1F` [Compound 138, (R)-2,3-difluoro-N-(6,6a,7,8,9,10-hexahydro-5H-pyrazino[1,2-a][1,8]naphthyridin-4-yl)benzamide], the pEC50 on 5-HT2B receptor (setting [3]) was at most 4.00; on 5-HT2C receptor (setting [4]), 5.24; at 5-HT2A receptor [1] (setting [5]) it was at most 4.00.

As for `O=C(Nc1ccnc2c1CC[C@@H]1CNCCN21)c1ccccc1` [Compound 139, (R)-N-(6,6a,7,8,9,10-hexahydro-5H-pyrazino[1,2-a][1,8]naphthyridin-4-yl)benzamide], the pEC50 is at most 4.00 at 5-HT2B receptor (setting [3]), 4.00 on 5-HT2C receptor (setting [4]) and at most 4.00 at 5-HT2A receptor [1].

For the compound `c1cc(C2CCC2)c2c(n1)N1CCNC[C@H]1CC2` [Compound 149, (R)-4-cyclobutyl-6,6a,7,8,9,10-hexahydro-5H-pyrazino[1,2-a][1,8]naphthyridine], the pKi at 5-HT2A receptor [2] is 7.99. The pEC50 at 5-HT2A receptor [1] (setting [5]) was 6.63.

In the case of `c1cc(C2CCCCC2)c2c(n1)N1CCNC[C@H]1CC2` [Compound 127, (R)-4-cyclohexyl-6,6a,7,8,9,10-hexahydro-5H-pyrazino[1,2-a][1,8]naphthyridine], the pEC50 on 5-HT2B receptor (setting [3]) is 6.04; at 5-HT2C receptor (setting [4]), 5.82; on 5-HT2A receptor [1], 5.04.

Take `CCc1c(C2CCC2)cnc2c1CC[C@@H]1CNCCN21` [Compound 166, (R)-3-cyclobutyl-4-ethyl-6,6a,7,8,9,10-hexahydro-5H-pyrazino[1,2-a][1,8]naphthyridine]: the pKi at 5-HT2A receptor [2] is 6.02.

In the case of `O=C(NCC(F)F)c1ccnc2c1CC[C@@H]1CNCCN21` [Compound 140, (R)-N-(2,2-difluoroethyl)-6,6a,7,8,9,10-hexahydro-5H-pyrazino[1,2-a][1,8]naphthyridine-4-carboxamide], the pEC50 is at most 4.00 at 5-HT2B receptor (setting [3]), 5.34 at 5-HT2C receptor (setting [4]) and at most 4.00 at 5-HT2A receptor [1].

Consider `c1cnc2c(c1)CC[C@@H]1CNCCN21` [Compound 148, (R)-6,6a,7,8,9,10-hexahydro-5H-pyrazino[1,2-a][1,8]naphthyridine], for which the figures for the pEC50 on 5-HT2B receptor (setting [3]), at 5-HT2C receptor (setting [4]) and on 5-HT2A receptor [1] (setting [5]) were 7.21, 7.03 and 4.00, respectively.

On to `CCCC(C)c1ccnc2c1CC[C@@H]1CNCCN21` (stereo partly drawn) [Compound 109, (6aR)-4-(pentan-2-yl)-6,6a,7,8,9,10-hexahydro-5H-pyrazino[1,2-a][1,8]naphthyridine], for which the pKi on 5-HT2A receptor [2] was 7.59.
